Reference: patent US20230066011A1, “PYRROLOPYRIMIDINE DERIVATIVE, AND PHARMACEUTICAL COMPOSITION FOR PREVENTING OR TREATING PROTEIN KINASE-RELATED DISEASE COMPRISING SAME AS ACTIVE INGREDIENT” (VORONOI CO., LTD., priority 2019, published 2023)

Columns and labels:
Assay type in all cases: biochemical
[1] = molecular target: T1, human GST-DYRK1A (Homo sapiens, UniProt Q13627); test: GST-DYRK1A enzyme inhibition, ADP-Glo kinase assay; conditions: ATP 10 μM, GST-DYRK1A full length, read-out: DYRK1 IC50
T1 construct: purified human GST-DYRK1A (full length, Thermo Scientifics) enzyme; purchased Thermo Scientifics
Summary of the method: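 Full-length enzyme (10 ng) was incubated with 10 μM ATP and a specific substrate for 1 h at 25 °C in 40 mM Tris-HCl pH 7.4, 20 mM MgCl2, 0.5 mg/mL BSA, 50 μM DTT. Luminescence was read against a solvent control, and IC50 values were derived from 3 data sets.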

[2] = molecular target: T2, human GST-CLK1 (Homo sapiens, UniProt P49759); test: GST-CLK1 enzyme inhibition, ADP-Glo kinase assay; conditions: ATP 10 μM, GST-CLK1 129-end
T2 construct: purified human GST-CLK1 (129-end, SignalChem) enzyme; purchased SignalChem
Summary of the method: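 ADP-Glo luminescence read-out, relative to untreated solvent control, gave IC50 (nM) from triplicate data sets. Reactions ran an hour at 25° C with 3 ng GST-CLK1 (residues 129-end), 10 μM ATP and specific substrate in Tris-HCl pH 7.4 buffer with MgCl2, BSA and DTT.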

[3] = molecular target: LRRK2 (Homo sapiens, UniProt Q5S007); test: LRRK2 enzyme inhibition, ADP-Glo kinase assay; parameters: purchased Invitrogen PR8604B; conditions: ATP 10 μM
Experimental: To evaluate an inhibitory activity of the compound according to the present invention against LRRK2, LRRK2 (G2019S), DYRK1, CLK1, and TTK kinases, experiments were performed as follows.
Each of the Example compounds was reacted with a purified human LRRK2 (Invitrogen #PR8604B) enzyme to evaluate an ability to inhibit an enzyme using a method as described below. A composition of 40 mM Tris-HCl (pH 7.4), 20 mM MgCl2, 0.5 mg/mL BSA, and 50 μM DTT was used as a reaction buffer, and all reactions of test substances were performed in the reaction buffer. Each of the compounds was diluted […] from a 10 mM DMSO stock using a serial dilution method, and enzyme activities were measured at final compound concentrations of 50, 10, 2, 0.4, 0.08, 0.016, 0.0032, 0.00064, 0.000128, 0.0000256, 0.00000512, and 0.000001024 μM. In the test, purified ATP (10 μM) and an enzyme substrate (0.2 μg) were reacted with a human LRRK2 (25 ng) enzyme at 25° C. for 2 hours, and the enzyme activities were determined using an in vitro ADP-Glo™ kinase assay (Promega). An enzyme-activity reaction solution, an ADP-Glo reaction solution, and an enzyme-ability detection solution were reacted at a ratio of 2:2:1 to measure a degree of inhibition of the enzyme activity with luminescence. The degree of inhibition of the enzyme activity according to the treatment concentration of each of the compounds was calculated based on the fluorescence of the enzyme activity of the solvent control which was not treated with the compound. In this case, the concentration of each of the compounds inhibiting 50% of the enzyme activity was determined to be an IC50 (nM) value, and calculated using Prism (Version 5.01; GraphPad) software.

[4] = molecular target: LRRK2 (G2019S) (Homo sapiens, UniProt Q5S007, G2019S); test: LRRK2 G2019S enzyme inhibition, ADP-Glo kinase assay; parameters: purchased SignalChem L10-12GG; conditions: ATP 25 μM
Summary of the method: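 IC50 derived from luminescent ADP-Glo readout against untreated solvent control, twelve final compound concentrations from 50 μM downward. Reaction: recombinant human LRRK2 G2019S enzyme, 25 μM ATP, substrate, pH 7.4 Tris buffer with MgCl2/BSA/DTT, 25° C. for 2 hours.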

LRRK2 (G2019S), sequence (Q5S007 970-2527 G2019S limits assumed): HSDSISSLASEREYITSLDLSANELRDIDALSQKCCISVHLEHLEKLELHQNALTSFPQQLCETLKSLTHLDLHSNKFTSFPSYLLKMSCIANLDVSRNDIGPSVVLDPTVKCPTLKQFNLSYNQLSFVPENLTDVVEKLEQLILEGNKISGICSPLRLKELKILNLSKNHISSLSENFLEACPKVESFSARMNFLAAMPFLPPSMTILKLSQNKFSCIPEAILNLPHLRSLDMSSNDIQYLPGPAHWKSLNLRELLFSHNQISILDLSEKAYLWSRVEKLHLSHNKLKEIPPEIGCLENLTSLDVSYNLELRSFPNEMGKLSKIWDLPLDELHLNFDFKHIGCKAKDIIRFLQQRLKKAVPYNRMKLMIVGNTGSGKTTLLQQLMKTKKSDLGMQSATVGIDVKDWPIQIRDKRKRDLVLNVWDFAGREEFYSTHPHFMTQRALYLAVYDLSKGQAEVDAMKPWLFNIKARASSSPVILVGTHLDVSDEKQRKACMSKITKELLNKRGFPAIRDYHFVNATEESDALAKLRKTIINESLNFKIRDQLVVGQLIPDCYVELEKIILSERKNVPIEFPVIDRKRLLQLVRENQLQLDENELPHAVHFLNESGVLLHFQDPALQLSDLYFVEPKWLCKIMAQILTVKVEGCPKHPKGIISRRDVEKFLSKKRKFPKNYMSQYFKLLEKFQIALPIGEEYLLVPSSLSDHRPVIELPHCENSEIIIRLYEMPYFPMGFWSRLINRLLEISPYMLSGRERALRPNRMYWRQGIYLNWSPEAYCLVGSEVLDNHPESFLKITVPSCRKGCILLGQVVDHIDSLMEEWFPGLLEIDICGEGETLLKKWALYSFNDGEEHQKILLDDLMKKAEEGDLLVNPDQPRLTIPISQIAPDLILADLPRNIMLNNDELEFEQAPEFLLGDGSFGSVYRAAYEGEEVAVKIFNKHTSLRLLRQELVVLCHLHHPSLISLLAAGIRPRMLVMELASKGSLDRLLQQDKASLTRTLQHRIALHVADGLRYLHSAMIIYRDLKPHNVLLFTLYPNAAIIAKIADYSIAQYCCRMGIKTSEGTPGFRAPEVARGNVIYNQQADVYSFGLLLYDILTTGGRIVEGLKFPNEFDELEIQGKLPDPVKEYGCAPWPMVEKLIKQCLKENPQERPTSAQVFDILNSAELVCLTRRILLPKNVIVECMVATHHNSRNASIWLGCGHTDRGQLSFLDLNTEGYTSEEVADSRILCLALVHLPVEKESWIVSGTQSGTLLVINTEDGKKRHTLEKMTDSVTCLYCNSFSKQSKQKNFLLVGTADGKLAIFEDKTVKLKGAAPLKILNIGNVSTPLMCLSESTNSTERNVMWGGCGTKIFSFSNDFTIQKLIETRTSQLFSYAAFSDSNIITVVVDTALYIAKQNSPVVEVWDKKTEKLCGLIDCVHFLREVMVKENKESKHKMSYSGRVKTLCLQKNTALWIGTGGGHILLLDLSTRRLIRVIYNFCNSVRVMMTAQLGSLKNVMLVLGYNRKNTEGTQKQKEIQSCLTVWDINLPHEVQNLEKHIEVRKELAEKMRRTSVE
LRRK2, sequence (Q5S007 970-2527 limits assumed): as the sequence (Q5S007 970-2527 G2019S limits assumed) above, with S1050G counted along it
T2 sequence (P49759 129-484 limits assumed): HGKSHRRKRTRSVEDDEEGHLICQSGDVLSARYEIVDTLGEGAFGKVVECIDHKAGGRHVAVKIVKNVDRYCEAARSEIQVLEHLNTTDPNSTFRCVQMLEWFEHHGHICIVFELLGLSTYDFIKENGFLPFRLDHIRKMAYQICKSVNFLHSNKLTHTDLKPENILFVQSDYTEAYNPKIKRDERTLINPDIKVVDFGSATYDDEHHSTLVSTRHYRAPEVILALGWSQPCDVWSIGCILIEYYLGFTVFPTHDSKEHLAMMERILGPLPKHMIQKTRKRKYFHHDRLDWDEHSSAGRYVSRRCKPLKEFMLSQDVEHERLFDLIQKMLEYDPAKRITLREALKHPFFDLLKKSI

IC50 [1] | IC50 [2] | IC50 [3] | IC50 [4] | Compound
301 to 1000 nM | 301 to 1000 nM | < 100 nM | < 100 nM | CCNc1nc(Nc2ccc(S(C)(=O)=O)cc2OC)nc2[nH]cc(C#N)c12 [Example 98, 4-(ethylamino)-2-((2-methoxy-4-(methylsulfonyl)phenyl)amino)-7H-pyrrolo[2,3-d]pyrimidine-5-carbonitrile]
301 to 1000 nM | 301 to 1000 nM | < 100 nM | 101 to 300 nM | CCCNc1nc(Nc2ccc(S(C)(=O)=O)cc2OC)nc2[nH]cc(C#N)c12 [Example 99, 2-((2-methoxy-4-(methylsulfonyl)phenyl)amino)-4-(propylamino)-7H-pyrrolo[2,3-d]pyrimidine-5-carbonitrile]
301 to 1000 nM | 301 to 1000 nM | < 100 nM | < 100 nM | COc1cc(S(C)(=O)=O)ccc1Nc1nc(NC(C)C)c2c(C#N)c[nH]c2n1 [Example 101, 4-(isopropylamino)-2-((2-methoxy-4-(methylsulfonyl)phenyl)amino)-7H-pyrrolo[2,3-d]pyrimidine-5-carbonitrile]
301 to 1000 nM | 301 to 1000 nM | < 100 nM | < 100 nM | COCCNc1nc(Nc2ccc(S(C)(=O)=O)cc2OC)nc2[nH]cc(C#N)c12 [Example 103, 2-((2-methoxy-4-(methylsulfonyl)phenyl)amino)-4-((2-methoxyethyl)amino)-7H-pyrrolo[2,3-d]pyrimidine-5-carbonitrile]
301 to 1000 nM | 101 to 300 nM | < 100 nM | < 100 nM | COc1cc(S(C)(=O)=O)ccc1Nc1nc(NC2CC2)c2c(C#N)c[nH]c2n1 [Example 104, 4-(cyclopropylamino)-2-((2-methoxy-4-(methylsulfonyl)phenyl)amino)-7H-pyrrolo[2,3-d]pyrimidine-5-carbonitrile]
301 to 1000 nM | 301 to 1000 nM | < 100 nM | < 100 nM | COc1cc(S(C)(=O)=O)ccc1Nc1nc(NC2CCC2)c2c(C#N)c[nH]c2n1 [Example 105, 4-(cyclobutylamino)-2-((2-methoxy-4-(methylsulfonyl)phenyl)amino)-7H-pyrrolo[2,3-d]pyrimidine-5-carbonitrile]
301 to 1000 nM | 301 to 1000 nM | < 100 nM | < 100 nM | COc1cc(S(C)(=O)=O)ccc1Nc1nc(NC2CCCC2)c2c(C#N)c[nH]c2n1 [Example 106, 4-(cyclopentylamino)-2-((2-methoxy-4-(methylsulfonyl)phenyl)amino)-7H-pyrrolo[2,3-d]pyrimidine-5-carbonitrile]
301 to 1000 nM | 301 to 1000 nM | 301 to 1000 nM | 301 to 1000 nM | COc1cc(S(C)(=O)=O)ccc1Nc1nc(NC2CCCCC2)c2c(C#N)c[nH]c2n1 [Example 107, 4-(cyclohexylamino)-2-((2-methoxy-4-(methylsulfonyl)phenyl)amino)-7H-pyrrolo[2,3-d]pyrimidine-5-carbonitrile]
301 to 1000 nM | < 100 nM | < 100 nM | < 100 nM | CNc1nc(Nc2ccc(C(=O)N3CCOCC3)c3c2OCCO3)nc2[nH]cc(C#N)c12 [Example 118, 4-(methylamino)-2-((8-(morpholine-4-carbonyl)-2,3-dihydrobenzo[b][1,4]dioxin-5-yl)amino)-7H-pyrrolo[2,3-d]pyrimidine-5-carbonitrile]
301 to 1000 nM | < 100 nM | < 100 nM | < 100 nM | CCNc1nc(Nc2ccc(C(=O)N3CCOCC3)c3c2OCCO3)nc2[nH]cc(C#N)c12 [Example 119, 4-(ethylamino)-2-((8-(morpholine-4-carbonyl)-2,3-dihydrobenzo[b][1,4]dioxin-5-yl)amino)-7H-pyrrolo[2,3-d]pyrimidine-5-carbonitrile]
101 to 300 nM | < 100 nM | < 100 nM | < 100 nM | CCCNc1nc(Nc2ccc(C(=O)N3CCOCC3)c3c2OCCO3)nc2[nH]cc(C#N)c12 [Example 120, 2-((8-(morpholine-4-carbonyl)-2,3-dihydrobenzo[b][1,4]dioxin-5-yl)amino)-4-(propylamino)-7H-pyrrolo[2,3-d]pyrimidine-5-carbonitrile]
101 to 300 nM | < 100 nM | < 100 nM | < 100 nM | CC(C)Nc1nc(Nc2ccc(C(=O)N3CCOCC3)c3c2OCCO3)nc2[nH]cc(C#N)c12 [Example 122, 4-(isopropylamino)-2-((8-(morpholine-4-carbonyl)-2,3-dihydrobenzo[b][1,4]dioxin-5-yl)amino)-7H-pyrrolo[2,3-d]pyrimidine-5-carbonitrile]
101 to 300 nM | < 100 nM | < 100 nM | < 100 nM | COCCNc1nc(Nc2ccc(C(=O)N3CCOCC3)c3c2OCCO3)nc2[nH]cc(C#N)c12 [Example 123, 4-((2-methoxyethyl)amino)-2-((8-(morpholine-4-carbonyl)-2,3-dihydrobenzo[b][1,4]dioxin-5-yl)amino)-7H-pyrrolo[2,3-d]pyrimidine-5-carbonitrile]
101 to 300 nM | 101 to 300 nM | < 100 nM | < 100 nM | N#Cc1c[nH]c2nc(Nc3ccc(C(=O)N4CCOCC4)c4c3OCCO4)nc(NC3CC3)c12 [Example 124, 4-(cyclopropylamino)-2-((8-(morpholine-4-carbonyl)-2,3-dihydrobenzo[b][1,4]dioxin-5-yl)amino)-7H-pyrrolo[2,3-d]pyrimidine-5-carbonitrile]
301 to 1000 nM | 101 to 300 nM | < 100 nM | < 100 nM | N#Cc1c[nH]c2nc(Nc3ccc(C(=O)N4CCOCC4)c4c3OCCO4)nc(NC3CCC3)c12 [Example 125, 4-(cyclobutylamino)-2-((8-(morpholine-4-carbonyl)-2,3-dihydrobenzo[b][1,4]dioxin-5-yl)amino)-7H-pyrrolo[2,3-d]pyrimidine-5-carbonitrile]
301 to 1000 nM | 301 to 1000 nM | < 100 nM | < 100 nM | N#Cc1c[nH]c2nc(Nc3ccc(C(=O)N4CCOCC4)c4c3OCCO4)nc(NCC3CC3)c12 [Example 130, 4-((cyclopropylmethyl)amino)-2-((8-(morpholine-4-carbonyl)-2,3-dihydrobenzo[b][1,4]dioxin-5-yl)amino)-7H-pyrrolo[2,3-d]pyrimidine-5-carbonitrile]
301 to 1000 nM | 301 to 1000 nM | < 100 nM | < 100 nM | CCCCNc1nc(Nc2ccc(C(=O)N3CCOCC3)c3c2OCCO3)nc2[nH]cc(C#N)c12 [Example 134, 4-(butylamino)-2-((8-(morpholine-4-carbonyl)-2,3-dihydrobenzo[b][1,4]dioxin-5-yl)amino)-7H-pyrrolo[2,3-d]pyrimidine-5-carbonitrile]
301 to 1000 nM | 301 to 1000 nM | 301 to 1000 nM | 301 to 1000 nM | N#Cc1c[nH]c2nc(Nc3ccc(C(=O)N4CCOCC4)c4c3OCCO4)nc(NC3COC3)c12 [Example 135, 2-((8-(morpholine-4-carbonyl)-2,3-dihydrobenzo[b][1,4]dioxin-5-yl)amino)-4-(oxetan-3-ylamino)-7H-pyrrolo[2,3-d]pyrimdine-5-carbonitrile]
